{"source": "patent US4400378A", "about": "“Pharmaceutical composition for the treatment of glaucoma” (priority 1981, dated 1983)", "key": {"intraocular pressure": {"system": "intraocular pressure", "experiment": "Intraocular pressure in rabbits after topical application to the eye (tonometric, Alcon Applanation Pneumotonograph)", "type": "in vivo, white New Zealand rabbits", "conditions": "2 drops (50 μl) per eye, rabbit", "description": "B=2-Amino-6-allyl-5,6,7,8-tetrahydro-4H-thiazolo[4,5-d]azepine dihydrochloride. The tests were performed on white New Zealand rabbits of both sexes having a body weight of 2.5 to 3 kg. Each rabbit was used for 4 tests at intervals of at least 3 days between tests.\nThe intraocular pressure was measured tonometrically with an Alcon Applanation Pneumotonograph (APTG) calibrated for the human eye. By means of a factor obtained by comparison of the manometric values and APTG values in rabbits anesthetized with urethane, the so-called real pressures were determined. Moreover, before each measurement the cornea was anesthetized with 20 μl of an 0.05% oxybuprocain [2-(diethylamino)-ethyl-4-amino-3-butoxy-benzoate] solution.\nThe test compound was dropped at different concentrations directly into each eye, 2 drops (50 μl) per eye."}, "[1]": {"experiment": "Oral acute toxicity (LD50) in the mouse", "conditions": "in vivo", "description": "Furthermore, the compounds of the formula I and their non-toxic, pharmacologically acceptable acid addition salts show good compatibility."}}, "note": "Structures can show the parent of a compound that is named as a salt.", "data": [{"compound": "CCN1CCc2nc(N)oc2CC1", "note": "[Compound A, 2-Amino-6-ethyl-5,6,7,8-tetrahydro-4H-oxoazolo[4,5-d]azepine dihydrochloride]", "values": [{"measurement": "Reduction of the intraocular pressure in % after one hour", "setting": "intraocular pressure; 0.3% concentration", "result": -15, "unit": "%"}, {"measurement": "Reduction of the intraocular pressure in % after one hour", "setting": "intraocular pressure; 1.0% concentration", "result": -21, "unit": "%"}, {"measurement": "Reduction of the intraocular pressure in % after one hour", "setting": "intraocular pressure; 3.0% concentration", "result": -32, "unit": "%"}, {"measurement": "LD50", "setting": "[1]", "result": 2.21, "unit": "mg/kg"}]}, {"compound": "C=CCN1CCc2nc(N)sc2CC1.Cl.Cl", "note": "[Compound B, 2-Amino-6-allyl-5,6,7,8-tetrahydro-4H-thiazolo[4,5-d]azepine dihydrochloride]", "values": [{"measurement": "Values of the intraocular pressure in mmHg after one hour", "setting": "intraocular pressure; 0.01% concentration", "result": 15, "unit": "mmHg"}, {"measurement": "Values of the intraocular pressure in mmHg after one hour", "setting": "intraocular pressure; 0.03% concentration", "result": 14.5, "unit": "mmHg"}, {"measurement": "Values of the intraocular pressure in mmHg after one hour", "setting": "intraocular pressure; concentration 0.3 (% not given)", "result": 13, "unit": "mmHg"}, {"measurement": "Values of the intraocular pressure in mmHg after one hour", "setting": "intraocular pressure; concentration 1.0 (% not given)", "result": 10, "unit": "mmHg"}, {"measurement": "LD50", "setting": "[1]", "result": 455, "unit": "mg/kg"}]}]}
